Data published in patent US20140148336A1, “METHODS OF CONTROLLING FUNGAL PATHOGENS USING POLYENE FUNGICIDES” (priority 2012, published 2014).
Where two headings read alike, the source gives them in different places.

Legend:
[1] = test system: F. virguliforme; format: in vivo, Fusarium virguliforme; conditions: 50 mL per cone, 2% low rate infested soil, 18-21 days
Experimental: Sorghum was prepared for inoculation. One to two liters of sorghum seed was put into spawn bags, autoclaved, then inoculated with 30-45 mL of an SDA spore suspension. Bags were left in a cupboard at room temperature, then shaken and mixed every few days for three weeks until ready. Sorghum inoculum was assessed for the number of spores per gram of seed by hemacytometer. The sorghum grew to 4.57×10^5 spores/g.
F. virguliforme spores were enumerated before soil inoculation. First, 25 mL of sterile 0.1% Tween 80 in water was added to sterile 50 mL conical tubes. The tubes where weighed. Then several grains of colonized sorghum from the spawn bag were aseptically added. The tubes were re-weighed to find the exact mass of colonized spores added to the tube. The tubes were shaken at 28-30° C. at approximately 250 rpm for 2-4 hours to release spores from the sorghum seed. Samples were then removed from the tubes and spores were quantified using a hemacytometer. F. virguliforme spores were quantified by making a dilution series from each tube onto PDA plates with 100 ppm chloramphenicol antibiotic.
Soil inoculation began by grounding sorghum grain inoculum in a Waring blender in small batches for 10-20 seconds on the low setting. The ground sorghum was then mixed into Monterey sand fine #60 (Lapis Luster, RMC pacific materials) at either a “2% low rate,” consisting of 2×10^5 spores/cone with 8.9 g/L of sand, or a “5% high rate,” consisting of 5×10^5 spores/cone with 22.5 g/L of sand. The Monterey sand was not pre-sterilized. The ground sorghum inoculum was added on the same day as the experimental set up. In later experiments, ground sorghum inoculum was mixed into sand based on the enumerated spores per gram of inoculum.
Natamycin solution was added in four different concentrations to four different groups of untreated seeds in “2% low rate” infested soil cones. The four different concentrations were 250 ppm, 100 ppm, 50 ppm, and 25 ppm. Fifty milliliters of the natamycin solutions were used per cone.
The assays were planted by first moistening infested sand with water at 150 mL per liter of sand and mixing. The cone-shaped containers were filled 1-2 inches at the bottom with a Sunshine #3 potting mix plug in order to keep the sand in the tube. The containers were then filled to within 1-1.5 inches of the top with moistened and infested sand, taking an average of 120-125 mL to fill each container. The containers were then watered. Two soy seeds were planted into each container. […]
The plants were allowed to grow for 18-21 days. The plants were then gently removed and assessed for root rot symptoms, with a rating of 1=0% infection on taproot and lateral roots, a 2=<25% infection, a 3=25-50% infection, a 4=51-90% infection, and a 5=>90% infection. […]

[2] = test system: SDS spores; test: Drench treatment on soy seedlings for control of SDS in planta (Example 3); format: in vivo, Fusarium virguliforme; conditions: 50 mL per container, 1×10^7 spores/container, eighteen days
Text: The plants were allowed to grow for 18-21 days. The plants were then gently removed and assessed for root rot symptoms, with a rating of 1=0% infection on taproot and lateral roots, a 2=<25% infection, a 3=25-50% infection, a 4=51-90% infection, and a 5=>90% infection. Root vigor was rated such that a rating of 4=healthy taproot and many lateral roots, a 3=fewer lateral roots and some stunting, a 2=fewer or stringy lateral roots and more stunting, 1=thin tap root and only a few lateral roots, and a 0=thin and stunted taproot with 0-3 lateral roots. […] Two experiments were performed. The natamycin solutions were used as a drench treatment with 50 mL of the solution applied to each container. Soy seedlings were transplanted into SDS infested soil, with SDS spores at a rate of 1×10^7 spores/container. The natamycin solutions were applied to the containers the day after transplant. Soy roots were washed after eighteen days.

[3] = test system: SDS; test: Seed treatment for control of SDS in planta, infested soil (Example 5); format: in vivo, Fusarium virguliforme; conditions: for Root Rot Average: 25 g inoculum per liter, rating 1-5 (5 = >90% infection), IC 3.3; for Root Vigor Average Infested Soil: rating 0-4 (4 = healthy taproot), IC 2.5
Text: (§1) The plants were allowed to grow for 18-21 days. The plants were then gently removed and assessed for root rot symptoms, with a rating of 1=0% infection on taproot and lateral roots, a 2=<25% infection, a 3=25-50% infection, a 4=51-90% infection, and a 5=>90% infection. Root vigor was rated such that a rating of 4=healthy taproot and many lateral roots, a 3=fewer lateral roots and some stunting, a 2=fewer or stringy lateral roots and more stunting, 1=thin tap root and only a few lateral roots, and a 0=thin and stunted taproot with 0-3 lateral roots.
(§2) Using a protocol similar to Example 2, natamycin treated seeds were tested at 50 μg, 25 μg, 10 μg, 5 μg, and 1 μg natamycin per seed. Briefly, seeds were coated with a natamycin slurry and then allowed to air dry. Ten samples of each were planted into infested soil, while five samples of each were planted in uninfested soil to compare germination and potential phytotoxicity.
Inoculum rates in this experiment were 25 g inoculum per liter sand/soil. This is equivalent to 8.5×10^4 spores per cone.
Plants treated with 50 μg/seed of natamycin had the most root rot, while plants treated with 1 μg/seed of natamycin had the least root rot. […] In the tables below, “IC Natamycin 25 ppm” refers to an infested control that was treated with natamcyin as a drench application at 25 ppm two days after planting untreated seed into infested soil.

[4] = test system: soybean; test: Seed treatment in uninfested soil, germination and potential phytotoxicity (Example 5); format: in vivo; conditions: for Root Vigor Average (Uninfested Soil): rating 0-4 (4 = healthy taproot)
Text: as §1, §2

[5] = drench 25 ppm two days after planting untreated seed into infested soil

**Q.** For `C[C@@H]1C/C=C/C=C/C=C/C=C/[C@H](O[C@@H]2O[C@H](C)[C@@H](O)[C@H](N)[C@@H]2O)C[C@@H]2O[C@](O)(C[C@@H](O)C[C@H]3O[C@@H]3/C=C/C(=O)O1)C[C@H](O)[C@H]2C(=O)O` [Natamycin, natamycin], which “root rot ratings as compared to the infected control” value ([1]; 25 ppm/container) is on record?
**A.** significantly lowering

**Q.** What about the “root vigor as compared to the infected control” value ([1]; 25 ppm/container) of the same compound?
**A.** improving

**Q.** And the “root rot ratings as compared to the infected control” value ([1]; 50 ppm/container)?
**A.** significantly lowering

**Q.** What about the “root vigor as compared to the infected control” value ([1]; 50 ppm/container) of the same compound?
**A.** improving

**Q.** And the “root rot ratings vs infested control (IC) plants” value ([2]; drench 10 ppm)?
**A.** significantly lower

**Q.** And the “root vigor ratings vs infested control (IC) plants” value ([2]; drench 10 ppm)?
**A.** higher

**Q.** What about the “root rot ratings vs infested control (IC) plants” value ([2]; drench 25 ppm) of the same compound?
**A.** significantly lower

**Q.** What about the “root vigor ratings vs infested control (IC) plants” value ([2]; drench 25 ppm) of the same compound?
**A.** higher

**Q.** What about the “root rot ratings vs infested control (IC) plants” value ([2]; drench 50 ppm) of the same compound?
**A.** significantly lower

**Q.** And the “root vigor ratings vs infested control (IC) plants” value ([2]; drench 50 ppm)?
**A.** higher

**Q.** What about the “Root Rot Average” value [3, 5] of the same compound?
**A.** 1.8

**Q.** And the “Root Vigor Average Infested Soil” value [3, 5]?
**A.** 2.3

**Q.** What about the “Root Rot Average” value ([3]; seed treatment 1 μg/seed, infested soil) of the same compound?
**A.** 3

**Q.** And the “Root Vigor Average Infested Soil” value ([3]; seed treatment 1 μg/seed)?
**A.** 1.9

**Q.** And the “Root Rot Average” value ([3]; seed treatment 5 μg/seed, infested soil)?
**A.** 3.6

**Q.** What about the “Root Vigor Average Infested Soil” value ([3]; seed treatment 5 μg/seed) of the same compound?
**A.** 2.4

**Q.** And the “Root Rot Average” value ([3]; seed treatment 10 μg/seed, infested soil)?
**A.** 4

**Q.** What about the “Root Vigor Average Infested Soil” value ([3]; seed treatment 10 μg/seed) of the same compound?
**A.** 1.8

**Q.** What about the “Root Rot Average” value ([3]; seed treatment 25 μg/seed, infested soil) of the same compound?
**A.** 4.7

**Q.** And the “Root Vigor Average Infested Soil” value ([3]; seed treatment 25 μg/seed)?
**A.** 1.1

**Q.** And the “Root Rot Average” value ([3]; seed treatment 50 μg/seed, infested soil)?
**A.** 4.6

**Q.** And the “Root Vigor Average Infested Soil” value ([3]; seed treatment 50 μg/seed)?
**A.** 1.6

**Q.** What about the germination of plants ([4]; all plants, seed treatment at all natamycin concentrations (50, 25, 10, 5, 1 μg per seed), un-infested (clean) soil) of the same compound?
**A.** germinated

**Q.** And the “Root Vigor Average (Uninfested Soil)” value ([4]; seed treatment 1 μg/seed)?
**A.** 3.5

**Q.** And the “Root Vigor Average (Uninfested Soil)” value ([4]; seed treatment 5 μg/seed)?
**A.** 3.9

**Q.** What about the “Root Vigor Average (Uninfested Soil)” value ([4]; seed treatment 10 μg/seed) of the same compound?
**A.** 3.6

**Q.** What about the “Root Vigor Average (Uninfested Soil)” value ([4]; seed treatment 25 μg/seed) of the same compound?
**A.** 3.3

**Q.** And the “Root Vigor Average (Uninfested Soil)” value ([4]; seed treatment 50 μg/seed)?
**A.** 3.8

**Q.** And the phytotoxicity to seeds ([4]; seed treatment at all concentrations (50, 25, 10, 5, 1 μg per seed), un-infested soil)?
**A.** not phytotoxic
